The structures appear in SMILES notation.

This test deals with MDA-MB-435. As to the kind of experiment: MDR-reversal activity evaluated against the resistant human breast tumor cell line MDA-435/LCC6-MDR. In kind it is functional. Further details: concentration or dose not given beside the values.
Regarding `CCC(=O)O[C@H]1C(=O)[C@]2(C)[C@@H](OC(=O)/C=C/c3ccc(C(=O)c4ccccc4)cc3)C[C@H]3OC[C@@]3(OC(C)=O)[C@H]2[C@H](OC(=O)c2ccccc2)[C@]2(O)C[C@H](OC(C)=O)C(C)=C1C2(C)C`, the Reduction is 88%. In the case of `CC(=O)O[C@H]1C(=O)[C@]2(C)[C@@H](OC(C)=O)C[C@H]3OC[C@@]3(OC(C)=O)[C@H]2[C@H](OC(=O)CCc2ccc3ccccc3c2)[C@]2(O)C[C@H](OC(C)=O)C(C)=C1C2(C)C`, the Reduction amounted to 24%. In the case of `COC(=O)O[C@H]1C(=O)[C@]2(C)[C@@H](OC(=O)/C=C/c3ccc(C(=O)c4ccccc4)cc3)C[C@H]3OC[C@@]3(OC(C)=O)[C@H]2[C@H](OC(=O)c2ccccc2)[C@]2(O)C[C@H](OC(C)=O)C(C)=C1C2(C)C`, the Reduction was found to be 91%. With `CC(=O)O[C@H]1C(=O)[C@]2(C)[C@@H](OC(=O)/C=C/c3ccc(OC(=O)c4ccccc4)cc3)C[C@H]3OC[C@@]3(OC(C)=O)[C@H]2[C@H](OC(=O)c2ccccc2)[C@]23OC(=O)O[C@H]2[C@H](OC(C)=O)C(C)=C1C3(C)C`, the Reduction is 95%. For `CC(=O)O[C@H]1C(=O)[C@]2(C)[C@@H](OC(=O)/C=C/c3ccc(C(=O)Oc4ccccc4)cc3)C[C@H]3OC[C@@]3(OC(C)=O)[C@H]2[C@H](OC(=O)c2ccccc2)[C@]23OC(=O)O[C@H]2[C@H](OC(C)=O)C(C)=C1C3(C)C`, the Reduction is listed as 84%. Regarding `CC(=O)O[C@H]1C(=O)[C@]2(C)[C@@H](OC(=O)/C=C/c3ccc(OC(=O)c4ccc([N+](=O)[O-])cc4)cc3)C[C@H]3OC[C@@]3(OC(C)=O)[C@H]2[C@H](OC(=O)c2ccccc2)[C@]23OC(=O)O[C@H]2[C@H](OC(C)=O)C(C)=C1C3(C)C`, the Reduction came to 27%. Turning to `CC(=O)O[C@H]1C(=O)[C@]2(C)[C@@H](OC(=O)CCc3c(F)c(F)c(F)c(F)c3F)C[C@H]3OC[C@@]3(OC(C)=O)[C@H]2[C@H](OC(=O)c2ccccc2)[C@]2(O)C[C@H](OC(C)=O)C(C)=C1C2(C)C`, the Reduction is 59%. Take `COc1ccccc1C(=O)Oc1ccc(/C=C/C(=O)O[C@H]2C[C@H]3OC[C@@]3(OC(C)=O)[C@H]3[C@H](OC(=O)c4ccccc4)[C@]45OC(=O)O[C@H]4[C@H](OC(C)=O)C(C)=C([C@@H](OC(C)=O)C(=O)[C@]23C)C5(C)C)cc1`: the Reduction is reported as 79%. Regarding `COc1ccc(C(=O)Oc2ccc(/C=C/C(=O)O[C@H]3C[C@H]4OC[C@@]4(OC(C)=O)[C@H]4[C@H](OC(=O)c5ccccc5)[C@]56OC(=O)O[C@H]5[C@H](OC(C)=O)C(C)=C([C@@H](OC(C)=O)C(=O)[C@]34C)C6(C)C)cc2)cc1`, the Reduction is on record as 69%.

`CC(=O)O[C@H]1C(=O)[C@]2(C)[C@@H](OC(=O)c3ccc(C(=O)c4ccccc4)cc3)C[C@H]3OC[C@@]3(OC(C)=O)[C@H]2[C@H](OC(=O)c2ccccc2)[C@]23OC(=O)O[C@H]2[C@H](OC(C)=O)C(C)=C1C3(C)C`: the Reduction worked out at 92%. Turning to `CC(=O)O[C@H]1C(=O)[C@]2(C)[C@@H](OC(=O)/C=C/c3ccc(OC(=O)c4cccc5ccccc45)cc3)C[C@H]3OC[C@@]3(OC(C)=O)[C@H]2[C@H](OC(=O)c2ccccc2)[C@]2(O)C[C@H](OC(C)=O)C(C)=C1C2(C)C`, the Reduction is listed as 89%. With `CC(=O)O[C@H]1C[C@@]2(O)[C@@H](OC(=O)c3ccccc3)[C@@H]3[C@]4(OC(C)=O)CO[C@@H]4C[C@H](OC(C)=O)[C@@]3(C)C(=O)[C@H](OC(=O)/C=C/c3ccc(C(=O)Oc4ccccc4)cc3)C(=C1C)C2(C)C` the figure was 24%; with `CC(=O)O[C@@]12CO[C@@H]1C[C@H](O)[C@@]1(C)C(=O)[C@H](O)C3=C(C)[C@@H](OC(=O)/C=C/c4ccc(C(=O)c5ccccc5)cc4)C[C@@](O)([C@@H](OC(=O)c4ccccc4)[C@H]21)C3(C)C`, 0%; with `COc1cccc(C(=O)O[C@H]2[C@@H]3[C@]4(OC(C)=O)CO[C@@H]4C[C@H](OC(=O)/C=C/c4ccc(C(=O)c5ccccc5)cc4)[C@@]3(C)C(=O)[C@H](OC(C)=O)C3=C(C)[C@@H](OC(C)=O)C[C@]2(O)C3(C)C)c1`, 95%. To `CC(=O)O[C@H]1C(=O)[C@]2(C)[C@@H](OC(=O)/C=C/c3ccc(C(=O)c4ccccc4)cc3)C[C@H]3OC[C@@]3(OC(C)=O)[C@H]2[C@H](OC(=O)c2ccccc2)[C@]23OC(=O)O[C@H]2[C@H](OC(C)=O)C(C)=C1C3(C)C` belongs 94%. To `CC(=O)O[C@H]1C(=O)[C@]2(C)[C@@H](OC(=O)/C=C/c3ccc(OC(=O)c4cccs4)cc3)C[C@H]3OC[C@@]3(OC(C)=O)[C@H]2[C@H](OC(=O)c2ccccc2)[C@]23OC(=O)O[C@H]2[C@H](OC(C)=O)C(C)=C1C3(C)C` belongs 55%. Turning to `CC(=O)O[C@H]1C(=O)[C@]2(C)[C@@H](OC(=O)/C=C/c3ccc(C(=O)c4ccccc4)cc3)C[C@H]3OC[C@@]3(OC(C)=O)[C@H]2[C@H](OC(=O)C2CCCCC2)[C@]2(O)C[C@H](OC(C)=O)C(C)=C1C2(C)C`, the Reduction is 86%. Take `CC(=O)O[C@H]1C(=O)[C@]2(C)[C@@H](OC(=O)Cc3ccc(C(=O)c4ccccc4)cc3)C[C@H]3OC[C@@]3(OC(C)=O)[C@H]2[C@H](OC(=O)c2ccccc2)[C@]23OC(=O)O[C@H]2[C@H](OC(C)=O)C(C)=C1C3(C)C`: the Reduction is 44%.

`CC(=O)O[C@H]1C(=O)[C@]2(C)[C@@H](OC(=O)/C=C/c3cccc(C(=O)c4ccc(C)cc4)c3)C[C@H]3OC[C@@]3(OC(C)=O)[C@H]2[C@H](OCc2ccccc2)[C@]2(O)C[C@H](OC(C)=O)C(C)=C1C2(C)C`: the Reduction turned out to be 91%. Regarding `CC(=O)O[C@H]1C(=O)[C@]2(C)[C@@H](OC(=O)/C=C/c3ccc4ccccc4c3)C[C@H]3OC[C@@]3(OC(C)=O)[C@H]2[C@H](OC(=O)c2ccccc2)[C@]23OC(=O)O[C@H]2[C@H](OC(C)=O)C(C)=C1C3(C)C`, the Reduction is listed as 60%.

For `CC(=O)O[C@H]1C(=O)[C@]2(C)[C@@H](OC(=O)Cc3ccc(-c4ccccc4)cc3)C[C@H]3OC[C@@]3(OC(C)=O)[C@H]2[C@H](OC(=O)c2ccccc2)[C@]2(O)C[C@H](OC(C)=O)C(C)=C1C2(C)C`, the Reduction came to 57%. With `CC(=O)O[C@H]1C[C@@]2(O)[C@@H](OC(=O)c3ccccc3)[C@@H]3[C@]4(OC(C)=O)CO[C@@H]4C[C@H](OC(C)=O)[C@@]3(C)C(=O)[C@H](OC(=O)/C=C/c3ccc(Oc4ccccc4)cc3)C(=C1C)C2(C)C` the figure was 29%; with `CC(=O)O[C@H]1C(=O)[C@]2(C)[C@@H](OC(=O)/C=C/c3ccc(OC(=O)c4ccc(O)cc4)cc3)C[C@H]3OC[C@@]3(OC(C)=O)[C@H]2[C@H](OC(=O)c2ccccc2)[C@]2(O)C[C@H](OC(C)=O)C(C)=C1C2(C)C`, 24%. Regarding `CC(=O)O[C@H]1C[C@@]2(O)[C@@H](OC(=O)c3ccccc3)[C@@H]3[C@]4(OC(C)=O)CO[C@@H]4C[C@H](OC(C)=O)[C@@]3(C)C(=O)[C@H](OC(=O)/C=C/c3ccc(OC(=O)c4ccccc4)cc3)C(=C1C)C2(C)C`, the Reduction is given as 7%. As to `CC(=O)O[C@H]1C(=O)[C@]2(C)[C@@H](OC(=O)/C=C/c3ccc(O)cc3)C[C@H]3OC[C@@]3(OC(C)=O)[C@H]2[C@H](OC(=O)c2ccccc2)[C@]2(O)C[C@H](OC(C)=O)C(C)=C1C2(C)C`, the Reduction is on record as 34%. For `CC(=O)O[C@H]1C(=O)[C@]2(C)[C@@H](OC(=O)/C=C/c3ccc(Sc4ccccc4)cc3)C[C@H]3OC[C@@]3(OC(C)=O)[C@H]2[C@H](OC(=O)c2ccccc2)[C@]2(O)C[C@H](OC(C)=O)C(C)=C1C2(C)C`, the Reduction was 64%. For `CC(=O)O[C@H]1C(=O)[C@]2(C)[C@@H](OC(=O)/C=C/c3ccc(OC(=O)c4ccc(Br)cc4)cc3)C[C@H]3OC[C@@]3(OC(C)=O)[C@H]2[C@H](OC(=O)c2ccccc2)[C@]23OC(=O)O[C@H]2[C@H](OC(C)=O)C(C)=C1C3(C)C`, the Reduction was 34%. For `CC(=O)O[C@H]1C(=O)[C@]2(C)[C@@H](OC(=O)/C=C/c3ccc(C(=O)c4cc(C(F)(F)F)cc(C(F)(F)F)c4)cc3)C[C@H]3OC[C@@]3(OC(C)=O)[C@H]2[C@H](OC(=O)c2ccccc2)[C@]2(O)C[C@H](OC(C)=O)C(C)=C1C2(C)C`, the Reduction was 36%. With `COc1cccc(C(=O)Oc2ccc(/C=C/C(=O)O[C@H]3C[C@H]4OC[C@@]4(OC(C)=O)[C@H]4[C@H](OC(=O)c5ccccc5)[C@]5(O)C[C@H](OC(C)=O)C(C)=C([C@@H](OC(C)=O)C(=O)[C@]34C)C5(C)C)cc2)c1` the figure was 34%. With `CC(=O)O[C@H]1C(=O)[C@]2(C)[C@@H](OC(=O)/C=C/c3ccc(C(=O)Oc4ccccc4)cc3)C[C@H]3OC[C@@]3(OC(C)=O)[C@H]2[C@H](OC(=O)c2ccccc2)[C@]2(O)C[C@H](OC(C)=O)C(C)=C1C2(C)C` the figure was 27%. Take `CC(=O)O[C@H]1C(=O)[C@]2(C)[C@@H](OC(=O)/C=C/c3ccc(OC(=O)c4ccc[nH]4)cc3)C[C@H]3OC[C@@]3(OC(C)=O)[C@H]2[C@H](OC(=O)c2ccccc2)[C@]23OC(=O)O[C@H]2[C@H](OC(C)=O)C(C)=C1C3(C)C`: the Reduction came to 63%.

Consider `CC(=O)O[C@H]1C(=O)[C@]2(C)[C@@H](OC(=O)CCc3ccc4c(c3)C(=O)c3ccccc3C4=O)C[C@H]3OC[C@@]3(OC(C)=O)[C@H]2[C@H](OC(=O)c2ccccc2)[C@]2(O)C[C@H](OC(C)=O)C(C)=C1C2(C)C`, for which the Reduction worked out at 29%.

As for `CC(=O)O[C@H]1C(=O)[C@]2(C)[C@@H](OC(=O)/C=C/c3cccc(NC(=O)c4ccccc4)c3)C[C@H]3OC[C@@]3(OC(C)=O)[C@H]2[C@H](OC(=O)c2ccccc2)[C@]2(O)C[C@H](OC(C)=O)C(C)=C1C2(C)C`, the Reduction was found to be 83%. With `COc1cccc(C(=O)Oc2ccc(/C=C/C(=O)O[C@H]3C[C@H]4OC[C@@]4(OC(C)=O)[C@H]4[C@H](OC(=O)c5ccccc5)[C@]56OC(=O)O[C@H]5[C@H](OC(C)=O)C(C)=C([C@@H](OC(C)=O)C(=O)[C@]34C)C6(C)C)cc2)c1` the figure was 62%; with `CC(=O)O[C@H]1C(=O)[C@]2(C)[C@@H](OC(=O)/C=C/c3ccc4c(c3)C(=O)c3ccccc3-4)C[C@H]3OC[C@@]3(OC(C)=O)[C@H]2[C@H](OC(=O)c2ccccc2)[C@]2(O)C[C@H](OC(C)=O)C(C)=C1C2(C)C`, 91%; with `CC(=O)O[C@H]1C(=O)[C@]2(C)[C@@H](OC(=O)/C=C/c3ccc(C(=O)c4ccc(F)cc4)cc3)C[C@H]3OC[C@@]3(OC(C)=O)[C@H]2[C@H](OC(=O)c2ccccc2)[C@]2(O)C[C@H](OC(C)=O)C(C)=C1C2(C)C`, 92%.

For the origin of these results see ChEMBL document CHEMBL1145206, “Design, synthesis and structure-activity relationships of novel taxane-based multidrug resistance reversal agents” (2005).
